Data reported in patent US10131652B2, “Pyrimidinyloxy benzene derivatives as herbicides” (E. I. DU PONT DE NEMOURS AND COMPANY, priority 2014, dated 2018).

How the values were obtained:
Assay in all cases: Test D pre-/postemergence plant response
Format in all cases: in vivo
[1] = tested on: Italian ryegrass (Lolium multiflorum); settings: Postemergence
In short: (§1)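 Seeds were planted in a loam and sand blend and sprayed preemergence. In parallel, seedlings grown in peat moss/vermiculite medium were sprayed postemergence at 2 to 18 cm height. Both used a surfactant-containing non-phytotoxic solvent. Greenhouse ratings at 13 to 15 days used a 0–100 control scale.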

[2] = tested on: barnyardgrass (Echinochloa crus-galli); settings: Postemergence; for Plant response rating, Barnyardgrass: scale 0 to 100, 0 no effect, 100 complete control
In short: as §1

[3] = tested on: blackgrass (Alopecurus myosuroides); settings: Postemergence; for Plant response rating, Blackgrass: scale 0 to 100, 0 no effect, 100 complete control
In short: as §1

corn (Zea mays) = settings: Postemergence; for Plant response rating, Corn: scale 0 to 100, 0 no effect, 100 complete control
In short: as §1

[4] = tested on: galium (catchweed bedstraw, Galium aparine); settings: Postemergence; for Plant response rating, Galium: scale 0 to 100, 0 no effect, 100 complete control
In short: as §1

[5] = tested on: giant foxtail (Setaria faberii); settings: Postemergence; for Plant response rating, Foxtail, Giant: scale 0 to 100, 0 no effect, 100 complete control
In short: as §1

[6] = tested on: johnsongrass (Sorghum halepense); settings: Postemergence; for Plant response rating, Johnsongrass: scale 0 to 100, 0 no effect, 100 complete control
In short: as §1

[7] = tested on: lambsquarters (Chenopodium album); settings: Postemergence
In short: as §1

[8] = tested on: large (Lg) crabgrass (Digitaria sanguinalis); settings: Postemergence; for Plant response rating, Crabgrass, Large: scale 0 to 100, 0 no effect, 100 complete control
In short: as §1

[9] = tested on: morningglory (Ipomoea coccinea); settings: Postemergence
In short: as §1

[10] = tested on: oilseed rape (Brassica napus); settings: Postemergence
In short: as §1

[11] = tested on: pigweed (Amaranthus retroflexus); settings: Postemergence
In short: as §1

[12] = tested on: ragweed (common ragweed, Ambrosia elatior); settings: Postemergence
In short: as §1

soybean (Glycine max) = settings: Postemergence
In short: as §1

[13] = tested on: velvetleaf (Abutilon theophrasti); settings: Postemergence
In short: as §1

[14] = tested on: waterhemp (common waterhemp, Amaranthus rudis); settings: Postemergence
In short: as §1

[15] = tested on: winter wheat (Triticum aestivum); settings: Postemergence
In short: as §1

[16] = tested on: yellow nutsedge (Cyperus esculentus); settings: Postemergence
In short: as §1

[17] = 31 g ai/ha, scale 0 to 100 (0 no effect, 100 complete control)
[18] = 62 g ai/ha, scale 0 to 100, 0 no effect, 100 complete control
[19] = 125 g ai/ha, scale 0 to 100, 0 no effect, 100 complete control

Clc1cnc(Oc2ccccc2-c2ccon2)nc1 [Compound 185]
65: Plant response rating, Morningglory [9, 19]
20: Plant response rating, Lambsquarters [7, 19] | Ragweed plant response rating [12, 17]
5: Plant response rating, Barnyardgrass ([2]; 125 g ai/ha) | Plant response rating, Corn (corn (Zea mays); 62 g ai/ha) | Plant response rating, Corn (corn (Zea mays); 125 g ai/ha) | Plant response rating, Galium ([4]; 62 g ai/ha) | Plant response rating, Galium ([4]; 125 g ai/ha) | Foxtail, Giant plant response rating [5, 17] | Plant response rating, Foxtail, Giant ([5]; 62 g ai/ha) | Plant response rating, Foxtail, Giant ([5]; 125 g ai/ha) | Plant response rating, Johnsongrass ([6]; 62 g ai/ha) | Plant response rating, Johnsongrass ([6]; 125 g ai/ha) | Plant response rating (scale 0 to 100), Velvetleaf ([13]; 16 g ai/ha) | Plant response rating (scale 0 to 100), Waterhemp ([14]; 16 g ai/ha)
35: Plant response rating (scale 0 to 100), Foxtail, Giant ([5]; 16 g ai/ha) | Pigweed plant response rating [11, 17] | Pigweed plant response rating [11, 18] | Soybean plant response rating (soybean (Glycine max); [18])
10: Plant response rating (scale 0 to 100), Lambsquarters ([7]; 16 g ai/ha) | Lambsquarters plant response rating [7, 17] | Plant response rating, Crabgrass, Large ([8]; 62 g ai/ha) | Plant response rating, Crabgrass, Large ([8]; 125 g ai/ha) | Morningglory plant response rating [9, 18] | Plant response rating (scale 0 to 100), Pigweed ([11]; 16 g ai/ha) | Plant response rating (scale 0 to 100), Ragweed ([12]; 16 g ai/ha) | Velvetleaf plant response rating [13, 17] | Velvetleaf plant response rating [13, 18]
0: Plant response rating (scale 0 to 100), Ryegrass, Italian ([1]; 16 g ai/ha) | Ryegrass, Italian plant response rating [1, 17] | Ryegrass, Italian plant response rating [1, 18] | Plant response rating, Ryegrass, Italian [1, 19] | Plant response rating (scale 0 to 100), Barnyardgrass ([2]; 16 g ai/ha) | Barnyardgrass plant response rating [2, 17] | Plant response rating, Barnyardgrass ([2]; 62 g ai/ha) | Plant response rating (scale 0 to 100), Blackgrass ([3]; 16 g ai/ha) | Blackgrass plant response rating [3, 17] | Plant response rating, Blackgrass ([3]; 62 g ai/ha) | Plant response rating, Blackgrass ([3]; 125 g ai/ha) | Plant response rating (scale 0 to 100), Corn (corn (Zea mays); 16 g ai/ha) | Corn plant response rating (corn (Zea mays); [17]) | Plant response rating (scale 0 to 100), Galium ([4]; 16 g ai/ha) | Galium plant response rating [4, 17] | Plant response rating (scale 0 to 100), Johnsongrass ([6]; 16 g ai/ha) | Johnsongrass plant response rating [6, 17] | Plant response rating (scale 0 to 100), Crabgrass, Large ([8]; 16 g ai/ha) | Crabgrass, Large plant response rating [8, 17] | Plant response rating (scale 0 to 100), Morningglory ([9]; 16 g ai/ha) | Plant response rating (scale 0 to 100), Oilseed Rape ([10]; 16 g ai/ha) | Oilseed Rape plant response rating [10, 17] | Oilseed Rape plant response rating [10, 18] | Plant response rating, Oilseed Rape [10, 19] | Plant response rating (scale 0 to 100), Wheat ([15]; 16 g ai/ha) | Wheat plant response rating [15, 17] | Wheat plant response rating [15, 18] | Plant response rating, Wheat [15, 19] | Plant response rating (scale 0 to 100), Nutsedge, Yellow ([16]; 16 g ai/ha) | Nutsedge, Yellow plant response rating [16, 17] | Nutsedge, Yellow plant response rating [16, 18]
45: Plant response rating, Soybean (soybean (Glycine max); [19])
15: Lambsquarters plant response rating [7, 18] | Ragweed plant response rating [12, 18] | Plant response rating (scale 0 to 100), Soybean (soybean (Glycine max); 16 g ai/ha)
25: Morningglory plant response rating [9, 17] | Plant response rating, Ragweed [12, 19] | Plant response rating, Velvetleaf [13, 19] | Waterhemp plant response rating [14, 17] | Waterhemp plant response rating [14, 18]
50: Plant response rating, Pigweed [11, 19]
30: Soybean plant response rating (soybean (Glycine max); [17]) | Plant response rating, Waterhemp [14, 19] | Plant response rating, Nutsedge, Yellow [16, 19]
